Laboratory results as given in patent US20250368619A1, “SUBSTITUTED TETRAHYDROCYCLOHEPTA[E]INDOLE DERIVATIVES, PROCESSES FOR THEIR PREPARATION AND THERAPEUTIC USES THEREOF” (SANOFI, priority 2022, published 2025).

These molecules were tested against T1, ERα (Homo sapiens, UniProt P03372) (assay: Estrogen receptor degradation activity: breast cancer cell ERα in cell western assay in MCF7 cells). Settings: 4 hours, relative to fulvestrant 0.1 μM positive control.
T1 construct: host or cells: MCF7
T1 sequence (P03372 1-595): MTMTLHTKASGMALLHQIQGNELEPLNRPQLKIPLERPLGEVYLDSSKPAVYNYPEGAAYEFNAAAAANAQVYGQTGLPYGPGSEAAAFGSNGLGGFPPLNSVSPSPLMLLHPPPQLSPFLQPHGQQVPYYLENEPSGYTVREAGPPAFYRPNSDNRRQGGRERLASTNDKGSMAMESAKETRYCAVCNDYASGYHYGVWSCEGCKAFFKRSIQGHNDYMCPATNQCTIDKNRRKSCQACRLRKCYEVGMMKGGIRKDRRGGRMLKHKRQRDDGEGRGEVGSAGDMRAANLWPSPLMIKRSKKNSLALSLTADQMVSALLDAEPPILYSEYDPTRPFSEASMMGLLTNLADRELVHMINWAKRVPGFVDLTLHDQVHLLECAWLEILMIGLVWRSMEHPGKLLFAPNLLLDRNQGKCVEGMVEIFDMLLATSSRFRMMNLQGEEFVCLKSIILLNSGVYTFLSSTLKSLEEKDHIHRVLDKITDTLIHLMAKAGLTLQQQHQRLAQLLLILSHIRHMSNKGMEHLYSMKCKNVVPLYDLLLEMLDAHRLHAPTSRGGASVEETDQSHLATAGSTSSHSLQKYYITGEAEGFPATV
Assay type: cell-based
Experimental: Test: Estrogen receptor degradation activity
Said test involves measuring the in vitro degradation activity of the compounds of the table 1.
The measurements of the degradation activities were made using a breast cancer cell ERα in cell western assay as described hereunder.
MCF7 cells (ATCC) were seeded in 384 wells microplate (collagen coated) at a concentration of 10000 cells/30 μL per well in red phenol free MEM alpha medium (invitrogen) containing 5% charcoal dextran striped FBS. The following day, 9 points serial 1:5 dilution of each compound was added to the cells in 2.5 μL at final concentrations ranging from 0.3-0.0000018 μM (in table 2), or 0.1 μM for fulvestrant (using as positive control). At 4 hours post compound addition the cells were fixed by adding 25 μL of formalin (final concentration 5% formalin containing 0.1% triton) for 10 minutes at RT and then washed twice with PBS. Then, 50 μL of LI-COR blocking buffer containing 0.1% Triton was added to plate for 30 minutes at RT. LI-COR blocking buffer was removed and cells were incubated overnight at cold room with 50 μL anti-ER rabbit monoclonal antibody (Thermo scientific MA1-39540) diluted at 1:1000 in LI-COR blocking buffer containing 0.1% tween-20. Wells which were treated with blocking buffer but no antibody were used as background control. Wells were washed twice with PBS (0.1% tween-20) and incubated at 37° C. for 60 minutes in LI-COR (0.1% tween-20) containing goat anti-rabbit antibody Alexa 488 (1:1000) and Syto-64 a DNA dye (2 μM final concentration). Cells were then washed 3 times in PBS and scanned in ACUMEN explorer (TTP-Labtech). Integrated intensities in the green fluorescence and red fluorescence were measured to determine the levels of ERα and DNA respectively.
The degradation activity with respect to estrogen receptors in this test is given by the concentration which degrades 50% of the estrogen receptor (or IC50) in nM.
The % of ERα levels decrease were determined as follows: % inhibition=100*(1−(sample−fulvestrant:DMSO−fulvestrant)).

Q: For Cc1c(Cl)cccc1C1=C(c2ccc(/C=C3/CCN(CCCF)C3)cc2)c2ccc3[nH]ccc3c2CCC1 [Compound 29, (Z)-7-(3-chloro-2-methylphenyl)-6-(4-((1-(3-fluoropropyl)pyrrolidin-3-ylidene)methyl)phenyl)-3,8,9,10-tetrahydrocyclohepta[e]indole], which “% Degradation At 0.3 μM” value is on record?
A: The value was 91%.

Q: For OCc1cccc(C2=C(c3ccc(CC4CN(CCCF)C4)cc3)c3ccc4[nH]ccc4c3CCC2)c1 [Compound 19, (3-(6-(4-((1-(3-fluoropropyl)azetidin-3-yl)methyl)phenyl)-3,8,9,10-tetrahydrocyclohepta[e]indol-7-yl)phenyl)methanol], which “% Degradation At 0.3 μM” value is on record?
A: Its value is 71%.

Q: How did the “% Degradation At 0.3 μM” value turn out when Cc1c(Cl)cccc1C1=C(c2ccc(CC3CN(CCCF)C3)cc2)c2ccc3[nH]ccc3c2CCC1 [Compound 8, 7-(3-chloro-2-methylphenyl)-6-(4-((1-(3-fluoropropyl)azetidin-3-yl)methyl)phenyl)-3,8,9,10-tetrahydrocyclohepta[e]indole] was run?
A: Its value is 83%.

Q: Which “% Degradation At 0.3 μM” value does the source give for Oc1c(F)ccc(C2=C(c3ccc(CC4CN(CCCF)C4)cc3)c3ccc4[nH]ccc4c3CCC2)c1F [Compound 6, 2,6-difluoro-3-(6-(4-((1-(3-fluoropropyl)azetidin-3-yl)methyl)phenyl)-3,8,9,10-tetrahydrocyclohepta[e]indol-7-yl)phenol] here?
A: The value was 90%.

Q: With COc1ccc(C2=C(c3ccc(CC4CN(CCCF)C4)cc3)c3ccc4[nH]ccc4c3CCC2)cn1 [Compound 15, 6-(4-((1-(3-fluoropropyl)azetidin-3-yl)methyl)phenyl)-7-(6-methoxypyridin-3-yl)-3,8,9,10-tetrahydrocyclohepta[e]indole] as the molecule, how does the “% Degradation At 0.3 μM” value read?
A: Its value is 91%.

Q: FCCCN1CC(Cc2ccc(C3=C(C4=CCOCC4)CCCc4c3ccc3[nH]ccc43)cc2)C1 [Compound 16, 7-(3,6-dihydro-2H-pyran-4-yl)-6-(4-((1-(3-fluoropropyl)azetidin-3-yl)methyl)phenyl)-3,8,9,10-tetrahydrocyclohepta[e]indole] was tested. Which “% Degradation At 0.3 μM” value did it give?
A: The value was 74%.

Q: For COc1cc(C2=C(c3ccc(CC4CN(CCCF)C4)cc3)c3ccc4[nH]ccc4c3CCC2)ccn1 [Compound 14, 6-(4-((1-(3-fluoropropyl)azetidin-3-yl)methyl)phenyl)-7-(2-methoxypyridin-4-yl)-3,8,9,10-tetrahydrocyclohepta[e]indole], which “% Degradation At 0.3 μM” value is on record?
A: The value was 91%.

Q: COc1cccc(C2=C(c3ccc(CC4CN(CCCF)C4)cc3)c3ccc4[nH]ccc4c3CCC2)c1OC [Compound 9, 7-(2,3-dimethoxyphenyl)-6-(4-((1-(3-fluoropropyl)azetidin-3-yl)methyl)phenyl)-3,8,9,10-tetrahydrocyclohepta[e]indole] was tested. Which “% Degradation At 0.3 μM” value did it give?
A: Its value is 80%.

Q: With OC/C=C/C1=C(c2ccc(CC3CN(CCCF)C3)cc2)c2ccc3[nH]ccc3c2CCC1 [Compound 17, (E)-3-(6-(4-((1-(3-fluoropropyl)azetidin-3-yl)methyl)phenyl)-3,8,9,10-tetrahydrocyclohepta[e]indol-7-yl)prop-2-en-1-ol] as the molecule, how does the “% Degradation At 0.3 μM” value read?
A: Its value is 69%.

Q: Which “% Degradation At 0.3 μM” value does the source give for N#Cc1ccc(C2=C(c3ccc(CC4CN(CCCF)C4)cc3)c3ccc4[nH]ccc4c3CCC2)cc1 [Compound 13, 4-(6-(4-((1-(3-fluoropropyl)azetidin-3-yl)methyl)phenyl)-3,8,9,10-tetrahydrocyclohepta[e]indol-7-yl)benzonitrile] here?
A: The value was 72%.

Q: How did the “% Degradation At 0.3 μM” value turn out when OCCCC1=C(c2ccc(CC3CN(CCCF)C3)cc2)c2ccc3[nH]ccc3c2CCC1 [Compound 25, 3-(6-(4-((1-(3-fluoropropyl)azetidin-3-yl)methyl)phenyl)-3,8,9,10-tetrahydrocyclohepta[e]indol-7-yl)propan-1-ol] was run?
A: The value was 75%.

Q: How did the “% Degradation At 0.3 μM” value turn out when OCc1ccc(C2=C(c3ccc(CC4CN(CCCF)C4)cc3)c3ccc4[nH]ccc4c3CCC2)cc1 [Compound 20, (4-(6-(4-((1-(3-fluoropropyl)azetidin-3-yl)methyl)phenyl)-3,8,9,10-tetrahydrocyclohepta[e]indol-7-yl)phenyl)methanol] was run?
A: The value was 76%.

Q: For N#Cc1cccc(C2=C(c3ccc(CC4CN(CCCF)C4)cc3)c3ccc4[nH]ccc4c3CCC2)c1 [Compound 11, 3-(6-(4-((1-(3-fluoropropyl)azetidin-3-yl)methyl)phenyl)-3,8,9,10-tetrahydrocyclohepta[e]indol-7-yl)benzonitrile], which “% Degradation At 0.3 μM” value is on record?
A: The value was 75%.

Q: Which “% Degradation At 0.3 μM” value does the source give for O=C(O)/C=C/C1=C(c2ccc(CC3CN(CCCF)C3)cc2)c2ccc3[nH]ccc3c2CCC1 [Compound 24, (E)-3-(6-(4-((1-(3-fluoropropyl)azetidin-3-yl)methyl)phenyl)-3,8,9,10-tetrahydrocyclohepta[e]indol-7-yl)acrylic acid] here?
A: Its value is 92%.

Q: Which “% Degradation At 0.3 μM” value does the source give for Cc1c(Cl)cccc1C1=C(c2ccc(OC3CN(CCCF)C3)cc2)c2ccc3[nH]ccc3c2CCC1 [Compound 26, 7-(3-chloro-2-methylphenyl)-6-(4-((1-(3-fluoropropyl)azetidin-3-yl)oxy)phenyl)-3,8,9,10-tetrahydrocyclohepta[e]indole] here?
A: Its value is 91%.

Q: With O=C(O)c1cccc(C2=C(c3ccc(CC4CN(CCCF)C4)cc3)c3ccc4[nH]ccc4c3CCC2)c1 [Compound 22, 3-(6-(4-((1-(3-fluoropropyl)azetidin-3-yl)methyl)phenyl)-3,8,9,10-tetrahydrocyclohepta[e]indol-7-yl)benzoic acid] as the molecule, how does the “% Degradation At 0.3 μM” value read?
A: The value was 68%.

Q: Which “% Degradation At 0.3 μM” value does the source give for N#Cc1ccccc1C1=C(c2ccc(CC3CN(CCCF)C3)cc2)c2ccc3[nH]ccc3c2CCC1 [Compound 12, 2-(6-(4-((1-(3-fluoropropyl)azetidin-3-yl)methyl)phenyl)-3,8,9,10-tetrahydrocyclohepta[e]indol-7-yl)benzonitrile] here?
A: Its value is 85%.

Q: With Cc1c(Cl)cccc1C1=C(c2ccc(NC3CN(CCCF)C3)cc2)c2ccc3[nH]ccc3c2CCC1 [Compound 27, N-(4-(7-(3-chloro-2-methylphenyl)-3,8,9,10-tetrahydrocyclohepta[e]indol-6-yl)phenyl)-1-(3-fluoropropyl)azetidin-3-amine] as the molecule, how does the “% Degradation At 0.3 μM” value read?
A: Its value is 91%.

Q: COc1nccc(C2=C(c3ccc(CC4CN(CCCF)C4)cc3)c3ccc4[nH]ccc4c3CCC2)c1F [Compound 2, 7-(3-fluoro-2-methoxypyridin-4-yl)-6-(4-((1-(3-fluoropropyl)azetidin-3-yl)methyl)phenyl)-3,8,9,10-tetrahydrocyclohepta[e]indole] was tested. Which “% Degradation At 0.3 μM” value did it give?
A: Its value is 92%.

Q: FCCCN1CC(Cc2ccc(C3=C(c4cccc(C(F)(F)F)c4)CCCc4c3ccc3[nH]ccc43)cc2)C1 [Compound 10, 6-(4-((1-(3-fluoropropyl)azetidin-3-yl)methyl)phenyl)-7-(3-(trifluoromethyl)phenyl)-3,8,9,10-tetrahydrocyclohepta[e]indole] was tested. Which “% Degradation At 0.3 μM” value did it give?
A: Its value is 73%.

Q: How did the “% Degradation At 0.3 μM” value turn out when Cc1c(Cl)cccc1C1=C(c2ccc(C=C3CN(CCCF)C3)cc2)c2ccc3[nH]ccc3c2CCC1 [Compound 3, 7-(3-chloro-2-methylphenyl)-6-(4-((1-(3-fluoropropyl)azetidin-3-ylidene)methyl)phenyl)-3,8,9,10-tetrahydrocyclohepta[e]indole] was run?
A: The value was 91%.

Q: CC(C)(O)/C=C/C1=C(c2ccc(CC3CN(CCCF)C3)cc2)c2ccc3[nH]ccc3c2CCC1 [Compound 18, (E)-4-(6-(4-((1-(3-fluoropropyl)azetidin-3-yl)methyl)phenyl)-3,8,9,10-tetrahydrocyclohepta[e]indol-7-yl)-2-methylbut-3-en-2-ol] was tested. Which “% Degradation At 0.3 μM” value did it give?
A: The value was 77%.

Q: With FCCCN1CC(Cc2ccc(C3=C(c4ccc(Cl)cc4Cl)CCCc4c3ccc3[nH]ccc43)cc2)C1 [Compound 7, 7-(2,4-dichlorophenyl)-6-(4-((1-(3-fluoropropyl)azetidin-3-yl)methyl)phenyl)-3,8,9,10-tetrahydrocyclohepta[e]indole] as the molecule, how does the “% Degradation At 0.3 μM” value read?
A: The value was 82%.

Q: OCCc1cccc(C2=C(c3ccc(CC4CN(CCCF)C4)cc3)c3ccc4[nH]ccc4c3CCC2)c1 [Compound 21, 2-(3-(6-(4-((1-(3-fluoropropyl)azetidin-3-yl)methyl)phenyl)-3,8,9,10-tetrahydrocyclohepta[e]indol-7-yl)phenyl)ethan-1-ol] was tested. Which “% Degradation At 0.3 μM” value did it give?
A: The value was 65%.
